# Measurements taken from patent publication US20250339546A1, “GLIOBLASTOMA TUMOR GROWTH INHIBITON BY SAT1 KNOCKDOWN” (BIOMARK CANCER SYSTEMS, INC., priority 2021, published 2025).
# Like-named read-outs stand apart in the source and are kept apart here.
# Legend:
# BBB = experiment: Bidirectional BBB permeability in the BBB microfluidic model
# Procedure: Permeability coefficients are the mean±SD of 3 microfluidic units.
# Finally, the bidirectional BBB permeability of amantadine and rimantadine, as well as their metabolites, was evaluated in the previously described model.
# SAT1 [1] = target: SAT1 (Homo sapiens, UniProt P21673)
# Procedure: FIG. 17C SAT1 induction was confirmed by Western blot analysis of the protein sample. (mean=+SD, n=3).
# Next, SAT1 activity was assessed in U251 cells via production of acetylated-amantadine after treatment with the SAT1 substrate amantadine, or the production of acetylated-rimantadine after treatment with the SAT1 substrate rimantadine.
# NAT1 = NAT1 gene and protein expression in U251 cells; assay type: cell-based, human; details: 10 μM, 24 h and 48 h
# NAT2 = NAT2 gene and protein expression in U251 cells; assay type: cell-based, human; details: 10 μM, 24 h and 48 h
# SAT1 [2] = experiment: SAT1 induction in U251 cells (mRNA and Western blot); assay type: cell-based, human; details: 10 μM, 24 and 48 hours
# From the text: SAT1 expression was next evaluated in U251 cells.
# macrophage cells (ANA-1) = experiment: Cell viability/proliferation MTT assay, ANA-1; assay type: cell-based, murine; details: 0.1 μM
# Procedure: (§1) Cells were transfected in T-25 flask as discussed above. Forty-eight hours after transfection, the cells were seeded in 96-well plates (5000 cells/well). After 24-hours, the cells were exposed to no treatment or either 10 Gy radiation (RS-2000, Rad Source Technologies, Inc., Buford, GA, USA) or anticancer drugs carmustine (i.e., BCNU™ or BiCNU™) (100 μM), Doxorubicin (0.1 μM) and Topotecan (0.2 μM). After 24 hours, the media and treatments were removed and replaced with fresh media and cultured for 48 hours. The percentage of viable cells was determined using MTT assay (Norouzi et al, 2020).
# U251 glioblastoma cells = experiment: Cell viability/proliferation MTT assay, U251; assay type: cell-based, human; details: combined with SAT1 knockdown, DOX 0.1 μM, TOPO 0.2 μM
# Procedure: as §1
# SAT1 (Homo sapiens, UniProt P21673), sequence (P21673 whole entry): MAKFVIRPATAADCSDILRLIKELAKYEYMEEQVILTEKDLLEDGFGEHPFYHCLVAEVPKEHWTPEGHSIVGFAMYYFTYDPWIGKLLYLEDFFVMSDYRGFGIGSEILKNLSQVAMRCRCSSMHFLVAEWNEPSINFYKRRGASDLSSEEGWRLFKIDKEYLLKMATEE
structure (smiles),measurement,setting,value
"CC(=O)NC12CC3CC(CC(C3)C1)C2 [Ac-amantadine, acetylated-amantadine]",BBB permeability,BBB; from the brain to blood,able to cross the BBB from the brain to blood efficiently
same,earliest detection after induction,SAT1 [1],5 min
same,"earliest detection after induction, in some cases",SAT1 [1],3 min
"CC(=O)NC(C)C12CC3CC(CC(C3)C1)C2 (stereo not drawn) [Ac-rimantadine, acetylated-rimantadine]",BBB permeability,BBB,able to cross the BBB from the brain to blood efficiently
same,earliest detection after induction,SAT1 [1],5 min
same,"earliest detection after induction, in some cases",SAT1 [1],3 min
"CCNCCCNCCCNCCCNCC [DENSPM, N(1),N(11)-diethylnorspermine]",NAT1 gene and protein expression levels,NAT1,did not significantly change
same,NAT2 gene and protein expression levels,NAT2,did not significantly change
same,SAT1 gene and protein expression,SAT1 [2],enhanced
"COc1cccc2c1C(=O)c1c(O)c3c(c(O)c1C2=O)C[C@@](O)(C(=O)CO)C[C@@H]3O[C@H]1C[C@H](N)[C@H](O)[C@H](C)O1 [DOX, Doxorubicin]",sensitivity of cells to treatment,macrophage cells (ANA-1),particularly sensitive
same,cell viabilities/proliferation,U251 glioblastoma cells,lowest
"CC[C@@]1(O)C(=O)OCc2c1cc1n(c2=O)Cc2cc3c(CN(C)C)c(O)ccc3nc2-1 [TOPO, Topotecan]",cell viabilities/proliferation,U251 glioblastoma cells,lowest
NC12CC3CC(CC(C3)C1)C2 [amantadine],BBB permeability,BBB; from blood to the brain,able to cross
CC(N)C12CC3CC(CC(C3)C1)C2 (stereo not drawn) [rimantadine],BBB permeability,BBB,able to cross
same,BBB permeability relative to amantadine,BBB,slightly more permeable
